Test results: patent US8703704B2, “Method for growing, restoring and regenerating hair” (priority 2009, dated 2014)
Entries after “also recorded” stand apart in the source; their conditions may differ.

How the values were obtained:
[1] = test system: cardiac muscle of a patient suffering from the dilated cardiomyopathy; test: Intermittent intravenous ANP in a patient with dilated cardiomyopathy; type: in vivo, human
Protocol: A small quantity of ANP was administered intermittently, namely once for a week by 1 mg over 4 hours by means of intravenous injection to a patient diagnosed as suffering from the dilated cardiomyopathy who was […]. The contraction percentage was 19% before start of administration of ANP, but was improved up to 40% in 6 months, and also the systemic arterial capacity, which was NYHA IV before start of the treatment, was improved up to NYHA II. […] By continuing administration of ANP once a week for two years, the […] was improved up to NYHA I, and although the patient's prognosis was regarded as 6 months by the conventional therapy, it is now determined that the patient will be able to enjoy the ordinary domestic life for 10 years or more. The patient's cardiac muscle thickness and contractile activity are at present quite good.

[2] = test system: wounds caused by the surgical operation (laser removal of lentigo); test: ANP applied to facial wounds caused by laser surgery (left half treated, right half as comparison); type: in vivo, human
Protocol: In a patient who received operation for removing lentigo on the entire facial surface by the laser method, ANP was administered at a dose of 0.1 to 5 μg (with an isotonic aqueous solution at a dose of 0.01 ml to 0.5 ml) twice a day to wounds caused by the surgical operation or areas around the wounds on the left half of the patient's face, and the result was compared to wounds on the right side half of the patient's face. […] Furthermore, tension of skin was observed more clearly in the left side facial area as a whole as compared to that in the right side, and smoothness of the facial skin in the left side was improved.

[3] = test system: head hairs of patients of thin hairs; test: ANP applied on head skin of patients of thin hairs; type: in vivo, human
Protocol: ANP was applied by 0.5 to 5 μg to two patients of thin hairs […], after the hairs were cleaned, twice a day (together with 0.5 ml of an isotonic aqueous solution) directly on the patients' head skin. States of pores and hairs and total state of head hairs after administration of ANP were observed and compared to those before start of administration of ANP. Observation of the states was also performed in 40 days and in 60 days after start of ANP administration for assessment. […] In 2 to 3 weeks after start of administration of ANP, it was observed that elasticity and solidity increased in total hairs on the patients' heads. In one month after start of ANP administration, the sites on each patient's head where the head skin had been visible became less visible. The retarded front line of head hairs again moved frontward, and new hairs grew up to the length of 5 to 7 mm. Furthermore, a second short hair was discovered at the side of a long grown hair. […] Black spiral hairs were observed under the pore portions. Just after the spiral hairs came out from under the head skin, the hairs kept the spiral state, but when the hairs become straight, the length was in the range from 3 to 4 mm.

[4] = test system: skin of hands (cracked and rough); test: ANP applied on hands with cracked and rough skin; type: in vivo, human; details: 0.5 to 5 μg twice a day on backs and palms of both hands
Protocol: The ANP according to the present invention was applied on both the backs and palms of both hands of a ceramic artist who touched water and mud every day at a dose of 0.5 to 5 μg twice a day.

KRT15 = test: RT-PCR expression of KRT15 in HaCat; type: cell-based, human; details: 1 μM; 30 minutes after start of treatment; transitional
Protocol: (§1) Human normal cornified cell stock HaCat was seeded in a 3.5 cm falcon flat bottom […] dish at the seeding rate of 2×10^4 cells/dish. In 3 days, ANP was added by 1 μM, and RNA was recovered using RNeasy plus (QUIAGEN) from the cells at the time points of 0 minute, 30 minutes, and 4 hours after start of the treatment. cDNA was synthesized using Superscript III (Invitrogen) from 0.2 μg of RNA, and the synthesized cDNA was used as a template for PCR. Using GAPDH as an internal control, the sample was subjected to PCR and then agarose electrophoresis, then stained by Cyber Safe (Invitrogen), the electrophoresis image was photographed on a UV transilluminator with a digital camera (Olympus C5060WZ), and thickness of each band was measured with the Image J (for densitometer analysis). […] Expression of BMP-2 increased by 1.5 times as compared to samples not treated in 4 hours after treatment with ANP.

Cyclin D1 = test: RT-PCR expression of Cyclin D1 in HaCat; type: cell-based, human; details: 1 μM
Protocol: as §1

[5] = test system: Human normal cornified cell stock HaCat; test: Wound (scratch) test on confluent HaCat; type: cell-based
Protocol: Human normal cornified cell stock HaCat was seeded in a falcon flat bottom 6-well dish at the seeding rate of 2×10^5 cells/dish. In 3 days, the cells in the confluent state were injured with a pipetteman chip, and the cells were washed with PBS twice, and then ANP was added so that the content was 1 μM (in OptiMEM serum free). In 24 hours, behaviors of the cells were observed (FIG. 4).

[6] = test system: Human normal cornified cell stock HaCat; test: Colony formation of HaCat in drops; type: cell-based; details: 1 μM ANP
Protocol: In the case of 10 μl drop, formation of any colony was not observed.

Compound: CC[C@H](C)[C@@H]1NC(=O)[C@H](CCCNC(=N)N)NC(=O)[C@H](CC(=O)O)NC(=O)[C@H](CCSC)NC(=O)[C@H](CCCNC(=N)N)NC(=O)CNC(=O)CNC(=O)[C@H](Cc2ccccc2)NC(=O)[C@@H](NC(=O)[C@H](CO)NC(=O)[C@H](CO)NC(=O)[C@H](CCCNC(=N)N)NC(=O)[C@H](CCCNC(=N)N)NC(=O)[C@H](CC(C)C)NC(=O)[C@@H](N)CO)CSSC[C@@H](C(=O)N[C@@H](CC(N)=O)C(=O)N[C@@H](CO)C(=O)N[C@@H](Cc2ccccc2)C(=O)N[C@@H](CCCNC(=N)N)C(=O)N[C@@H](Cc2ccc(O)cc2)C(=O)O)NC(=O)CNC(=O)[C@H](CC(C)C)NC(=O)CNC(=O)[C@H](CO)NC(=O)[C@H](CCC(N)=O)NC(=O)[C@H](C)NC(=O)CNC1=O [ANP, atrial natriuretic peptide]
- contraction percentage ([1]; 1 mg i.v. over 4 hours once a week, in 6 months, 19% before start): 40%
- NYHA class after continued administration ([1]; ANP once a week for two years): NYHA I
- cardiac muscle thickness (ultrasonic diagnosis) ([1]; during ANP treatment): increased
- NYHA functional class ([1]; in 6 months, NYHA IV before start of the treatment): NYHA II
- time the patient will be able to enjoy ordinary domestic life (prognosis) ([1]; prognosis was 6 months by the conventional therapy): ≥ 10 years
- closure of wounds ([2]; 0.1 to 5 μg twice a day, one week after start, versus untreated right side): most of the wounds were closed
- restoration of wounds ([2]; ANP area compared to control area / no ANP): advances far quickly; also recorded: more quickly restored
- smoothness of the facial skin ([2]; left (treated) side): improved
- surgical traces ([2]; sites where ANP was administered): less remarkable
- reformation of subcutaneous tissue ([2]; treated left half versus untreated right half of face): clearly earlier
- growth of downy hairs on the frontal region ([3]; 0.5 to 5 μg twice a day, one week after start): growth of hairs like downy hairs was observed
- elasticity and solidity of total hairs ([3]; 2 to 3 weeks after start): increased
- thickness of head hairs ([3]; 40 days after start): thickness increased
- visibility of head skin ([3]; 60 days after start): hardly visible
- cracked and rough skin symptoms [4]: remarkably improved
- increase of expression rate of KRT15 (KRT15): about 20%
- expression rate of Cyclin D1 relative to the original level (Cyclin D1): ⅓ and around ⅓
- cell motility ([5]; 1 μM): rose
- behaviour of cells at wound edges ([5]; 1 μM in OptiMEM serum free, 24 hours): many rounding-like sites are observed; also recorded: rounding-like state was observed at many sites
- capability of forming colonies [6]: form colonies; also recorded: colonies formed
